Laboratory results: patent publication US12427171B2, “Krill oil composition enriched in LPC-DHA and LPC-EPA” (Aker BioMarine Human Ingredients AS, priority 2020, dated 2025)

Tests used:
[1] = Rat retinal fatty acid composition after daily gavage of DHA as TAG, PC or LPC for 30 days (GC/MS); format: in vivo
Procedure: Normal male Sprague-Dawley rats (8-week-old; n=5 per group) were gavaged daily with 10 mg DHA in 250 μL corn oil in the form of TAG-DHA, di-DHA PC, or LPC-DHA for 30 days. […] All animals were on regular rodent chow that contained no DHA, but contained 17.4 mg α-linolenic acid (18:3, n-3) per g of chow. Retinal FA were analyzed by GC/MS as described in the text. The percent composition of 20:4 (n-6), 20:5 (n-3), 22:5 (n-3), and 22:6 (n-3) are shown here. The significance of differences between the treatment groups was determined by a one-way ANOVA, with Tukey multiple post-hoc test (Graphpad Prism 8.0). […] TG: triacylglycerol; PC: phosphatidylcholine; LPC: lysophosphatidylcholine; FA: fatty acid; GC/MS: gas chromatography/mass spectroscopy.
(§1) Animals and dietary treatments: All studies in animals described here were approved by the Institutional Animal Care and Use Committee of the University of Illinois at Chicago. The retina samples were obtained from our previous studies on the brain accretion of DHA in mice and rats, which were published previously. Male Sprague-Dawley rats (8-week-old) were purchased from Harlan laboratories (Indianapolis, IN, USA). Male C57 BL/J6 mice (2-4-months-old) were purchased from Jackson Laboratories (Bar Harbor. Maine).
(§2) In the first study, male Sprague-Dawley rats (n=5 per group, 8-week-old) were gavaged daily with 10 mg of DHA (40 mg DHA/kg body weight) in the form of TAG-DHA (DHASCO algal oil, DSM Nutritional Products, Columbia, MD, USA), synthetic di-DHA PC (phosphatidylcholine), or synthetic LPC-DHA (sn-1 acyl) for 30 days. The DHA was distributed equally among the three positions of TAG-DHA [17]. […] In the second study, 4-month-old male C57 BL/J6 mice (n=8 per group) were gavaged daily with 40 mg DHA/kg body weight in the form of free (unesterified) DHA, sn-1 acyl LPC-DHA, or sn-2 acyl LPC-DHA for 30 days as described previously. In the third study, male C57 BL/J6 mice (2-months-old, n=5 per group) were fed diets enriched with natural or lipase-treated fish oil or hill oil for 30 days. The total amount of omega-3 FA (eicosapentaenoic acid (EPA)+DHA) was 2.64 g/kg diet in all the diets. The untreated hill oil contained 18% of total omega-3 FA as LPC, whereas the lipase-treated hill oil contained >80% of the total omega-3 FA as LPC. The fish oil diets contained no LPC-EPA or LPC-DHA. The animals were trans-cardially perfused with ice cold phosphate buffered saline under anesthesia and the retinas were collected and kept frozen at −80° C. until the analysis.
(§3) Analytical procedures: The total lipids of retina were extracted by Bligh and Dyer procedure and the fatty acids were methylated using methanolic HCl. The fatty acid analysis was carried out by GC/MS (gas chromatography/mass spectroscopy) using Shimadzu QP2010SE equipped with Supelco Omegawax column, as described previously. Total ion current in the range of 50-400 m/z was used for quantification of the methyl esters. For LC/MS/MS (liquid chromatography/tandem mass spectroscopy) analysis, the lipids were extracted by the procedure of Ivanova et al.. The analysis of molecular species of phospholipids was performed on an ABSciex QTRAP mass spectrometer (Redwood City, CA, USA) coupled with Agilent 2600 UPLC system (Santa Clara, CA, USA), by multiple reaction monitoring. The internal standards 17:0 LPC, di 17:0 PC, and di 17:0 PE (phosphatidylethanolamine) were used for the quantification of the corresponding molecular species, without applying any correction factors for the differences in the ion intensity of different molecular species.
Statistics and correlations: The significance of differences between treatment groups was determined by a one-way ANOVA, with Tukey post-hoc multiple comparison corrections or unpaired t-test between control and treated samples adjusted with Holm-Sidak method (Graphpad Prism 8.0, San Diego, CA, USA). […]

[2] = Mouse retinal fatty acid composition after daily gavage of free DHA, sn-1 DHA LPC or sn-2 DHA LPC for 30 days (GC/MS); format: in vivo; conditions: 1 mg DHA daily by gavage
Procedure: Normal male mice (C57 BL/J6, 16-week-old) were gavaged daily with 1 mg DHA in the form of free DHA, sn-1 DHA LPC, or sn-2 DHA LPC in 80 μL corn oil for 30 days. Retinal FA composition was analyzed by GC/MS. Only the values for arachidonic acid and the omega-3 FA are shown here (mean±SD, 8 animals/group). […] SD: standard deviation; sn-1 and sn-2: stereospecific numbering 1 and 2 respectively; LPC: lysophosphatidylcholine; DHA: docosahexaenoic acid.
as §1, §2, §3
Statistics and correlations: The significance of differences between treatment groups was determined by a one-way ANOVA, with Tukey post-hoc multiple comparison corrections or unpaired t-test between control and treated samples adjusted with Holm-Sidak method (Graphpad Prism 8.0, San Diego, CA, USA).

Compound: CC/C=C\C/C=C\C/C=C\C/C=C\C/C=C\C/C=C\CCC(=O)OC[C@H](COP(=O)([O-])OCC[N+](C)(C)C)OC(=O)CC/C=C\C/C=C\C/C=C\C/C=C\C/C=C\C/C=C\CC [PC-DHA]
- rat retinal fatty acid composition, 12:0, Mean ([1]; 10 mg DHA daily by gavage): 4.57 % of total FA
- rat retinal fatty acid composition, 14:0, Mean ([1]; 10 mg DHA daily by gavage): 0.97 % of total FA
- rat retinal fatty acid composition, 16:0, Mean ([1]; 10 mg DHA daily by gavage): 19.06 % of total FA
- rat retinal fatty acid composition, 16:0 DMA, Mean ([1]; 10 mg DHA daily by gavage): 0.05 % of total FA
- rat retinal fatty acid composition, 16:1 (n-7), Mean ([1]; 10 mg DHA daily by gavage): 0.65 % of total FA
- rat retinal fatty acid composition, 17:1 (n-7), Mean ([1]; 10 mg DHA daily by gavage): 0.03 % of total FA
- rat retinal fatty acid composition, 18:0, Mean ([1]; 10 mg DHA daily by gavage): 17.79 % of total FA
- rat retinal fatty acid composition, 18:0 DMA, Mean ([1]; 10 mg DHA daily by gavage): 0.03 % of total FA
- rat retinal fatty acid composition, 18:1 (n-7), Mean ([1]; 10 mg DHA daily by gavage): 3.91 % of total FA
- rat retinal fatty acid composition, 18:1 (n-9), Mean ([1]; 10 mg DHA daily by gavage): 17.70 % of total FA
- rat retinal fatty acid composition, 18:1 DMA, Mean ([1]; 10 mg DHA daily by gavage): 0.06 % of total FA
- rat retinal fatty acid composition, 18:2 (n-6), Mean ([1]; 10 mg DHA daily by gavage): 0.95 % of total FA
- rat retinal fatty acid composition, 18:3 (n-3), Mean ([1]; 10 mg DHA daily by gavage): 0.07 % of total FA
- rat retinal fatty acid composition, 18:3 (n-6), Mean ([1]; 10 mg DHA daily by gavage): 0.49 % of total FA
- rat retinal fatty acid composition, 20:0, Mean ([1]; 10 mg DHA daily by gavage): 0.05 % of total FA
- rat retinal fatty acid composition, 20:1 (n-9), Mean ([1]; 10 mg DHA daily by gavage): 0.07 % of total FA
- rat retinal fatty acid composition, 20:2 (n-6), Mean ([1]; 10 mg DHA daily by gavage): 0.06 % of total FA
- rat retinal fatty acid composition, 20:3 (n-6), Mean ([1]; 10 mg DHA daily by gavage): 0.06 % of total FA
- rat retinal fatty acid composition, 20:4 (n-6), Mean ([1]; 10 mg DHA daily by gavage): 8.45 % of total FA
- rat retinal fatty acid composition, 20:5 (n-3), Mean ([1]; 10 mg DHA daily by gavage): 0.06 % of total FA
- rat retinal fatty acid composition, 22:0, Mean ([1]; 10 mg DHA daily by gavage): 0.07 % of total FA
- rat retinal fatty acid composition, 22:2 (n-6), Mean ([1]; 10 mg DHA daily by gavage): 0.12 % of total FA
- rat retinal fatty acid composition, 22:4 (n-6), Mean ([1]; 10 mg DHA daily by gavage): 0.07 % of total FA
- rat retinal fatty acid composition, 22:5 (n-3), Mean ([1]; 10 mg DHA daily by gavage): 0.06 % of total FA
- rat retinal fatty acid composition, 22:5 (n-6), Mean ([1]; 10 mg DHA daily by gavage): 0.02 % of total FA
- rat retinal fatty acid composition, 22:6 (n-3), Mean ([1]; 10 mg DHA daily by gavage): 24.53 % of total FA
- rat retinal fatty acid composition, 24:1 (n-9), Mean ([1]; 10 mg DHA daily by gavage): 0.05 % of total FA
- change of the percentage of DHA in retina versus control ([1]; rats, 10 mg DHA/day (40 mg DHA/kg)): +45%

Compound: CC/C=C\C/C=C\C/C=C\C/C=C\C/C=C\C/C=C\CCC(=O)O[C@H](CO)COP(=O)([O-])OCC[N+](C)(C)C [sn-2 DHA LPC]
- fatty acid composition of mouse retina, 12:0, Mean ± S.D. [2]: 0.73 ± 0.47
- fatty acid composition of mouse retina, 14:0, Mean ± S.D. [2]: 0.30 ± 0.17
- fatty acid composition of mouse retina, 16:0, Mean ± S.D. [2]: 14.62 ± 1.22
- fatty acid composition of mouse retina, 16:0 DMA, Mean ± S.D. [2]: 1.02 ± 0.32
- fatty acid composition of mouse retina, 16:1 (n-7), Mean ± S.D. [2]: 0.47 ± 0.34
- fatty acid composition of mouse retina, 17:1 (n-7), Mean ± S.D. [2]: 0.48 ± 0.38
- fatty acid composition of mouse retina, 18:0, Mean ± S.D. [2]: 15.44 ± 1.50
- fatty acid composition of mouse retina, 18:0 DMA, Mean ± S.D. [2]: 1.96 ± 0.30
- fatty acid composition of mouse retina, 18:1(n-7), Mean ± S.D. [2]: 3.82 ± 0.62
- fatty acid composition of mouse retina, 18:1 (n-9), Mean ± S.D. [2]: 15.56 ± 1.16
- fatty acid composition of mouse retina, 18:1 DMA, Mean ± S.D. [2]: 0.78 ± 0.64
- fatty acid composition of mouse retina, 18:2 (n-6), Mean ± S.D. [2]: 1.38 ± 0.49
- fatty acid composition of mouse retina, 18:3 (n-3), Mean ± S.D. [2]: 0.51 ± 0.42
- fatty acid composition of mouse retina, 18:3 (n-6), Mean ± S.D. [2]: 0.60 ± 0.47
- fatty acid composition of mouse retina, 20:0, Mean ± S.D. [2]: 1.18 ± 0.72
- fatty acid composition of mouse retina, 20:1 (n-9), Mean ± S.D. [2]: 2.87 ± 0.60
- fatty acid composition of mouse retina, 20:2 (n-6), Mean ± S.D. [2]: 0.88 ± 0.95
- fatty acid composition of mouse retina, 20:3 (n-6), Mean ± S.D. [2]: 1.44 ± 0.35
- fatty acid composition of mouse retina, 20:4 (n-6), Mean ± S.D. [2]: 5.75 ± 0.71
- fatty acid composition of mouse retina, 20:5 (n-3), Mean ± S.D. [2]: 1.91 ± 1.40
- fatty acid composition of mouse retina, 22:0, Mean ± S.D. [2]: 1.24 ± 0.95
- fatty acid composition of mouse retina, 22:2 (n-6), Mean ± S.D. [2]: 1.00 ± 0.76
- fatty acid composition of mouse retina, 22:4 (n-6), Mean ± S.D. [2]: 2.23 ± 0.87
- fatty acid composition of mouse retina, 22:5 (n-3), Mean ± S.D. [2]: 0.79 ± 0.76
- fatty acid composition of mouse retina, 22:6 (n-3), Mean ± S.D. [2]: 22.57 ± 3.12
- fatty acid composition of mouse retina, 24:1 (n-9), Mean ± S.D. [2]: 0.49 ± 0.17
